Reference: ChEMBL document CHEMBL5120884, “Complex Flavanones from Cryptocarya metcalfiana and Structural Revision of Oboflavanone A” (J Nat Prod, 2022)

Tested on: HCT-116
Assay: Cytotoxicity against human HCT-116 cells incubated for 48 hrs by MTT assay
Assay type: functional, cell-based
Conditions: HCT-116, 48 h

`O=C1C=CC[C@H](C[C@@H]2C[C@@H]3C[C@@](/C=C/c4ccccc4)(Oc4cc5c(c(O)c43)C(=O)C[C@@H](c3ccccc3)O5)O2)O1` and `O=C1C=CC[C@H](C[C@@H]2C[C@@H]3C[C@@](CCc4ccccc4)(Oc4cc5c(c(O)c43)C(=O)C[C@@H](c3ccccc3)O5)O2)O1` are within 1.5-fold of each other in IC50: 7.2 µM for the first, 6.1 µM for the second.

`COC(=O)CCC[C@@H]1C[C@@H]2C[C@@](CCc3ccccc3)(Oc3cc4c(c(O)c32)C(=O)C[C@H](c2ccccc2)O4)O1` and `COC(=O)CCC[C@@H]1C[C@@H]2C[C@@](CCc3ccccc3)(Oc3cc4c(c(O)c32)C(=O)C[C@@H](c2ccccc2)O4)O1` cannot be ordered by IC50: > 10 µM for the first, > 10 µM for the second.

`O=C(O)CCC[C@@H]1C[C@@H]2C[C@@](/C=C/c3ccccc3)(Oc3cc4c(c(O)c32)C(=O)C[C@@H](c2ccccc2)O4)O1` and `O=C(O)CCC[C@@H]1C[C@@H]2C[C@@](/C=C/c3ccccc3)(Oc3cc4c(c(O)c32)C(=O)C[C@H](c2ccccc2)O4)O1` cannot be ordered by IC50: > 10 µM for the first, > 10 µM for the second.

`O=C1CCC[C@@H]2C[C@H](C[C@](O)(/C=C/c3ccccc3)O2)c2c(cc(O)c3c2O[C@@H](c2ccc(O)cc2)CC3=O)O1` and `O=C1CCC[C@@H]2C[C@H](C[C@](O)(/C=C/c3ccccc3)O2)c2c(cc(O)c3c2O[C@H](c2ccc(O)cc2)CC3=O)O1` are within 1.5-fold of each other in IC50: 4.5 µM for the first, 4.2 µM for the second.

Molecule `O=C1C=CC[C@H](C[C@@H]2C[C@@H]3C[C@@](CCc4ccccc4)(Oc4cc5c(c(O)c43)C(=O)C[C@H](c3ccccc3)O5)O2)O1` has an IC50 of 5.8 µM.
